From patent publication US20260285870A1, “TRIAZOLOPYRIDAZINE DERIVATIVE, PREPARATION METHOD THEREFOR, PHARMACEUTICAL COMPOSITION THEREOF, AND USE THEREOF” (SHANGHAI SIMR BIOTECHNOLOGY CO., LTD., priority 2019, published 2026)

How the values were obtained:
[1] = Rat liver microsome stability (RLM) experiment; format: in vitro ADME; settings: rat liver microsomes 0.5 mg protein/mL, NADPH, 37° C., 0-45 min; for microsomal CLint: pH 7.4
Protocol: Rat liver microsomes (Xenotech, item No. R1000, lot No. 1310030), 100 mM potassium phosphate buffer solution (pH 7.4), 10 mM magnesium chloride.
Compound preparation: 5 μL of compound DMSO mother liquor (10 mM) was added to 495 μL of methanol to obtain an intermediate solution with a compound concentration of 100 μM. Then 50 μL of the intermediate solution was taken and dissolved in 450 μL of potassium phosphate buffer solution to obtain a test solution with a final concentration of 10 μM.
NADPH regeneration system (concentration of isocitrate dehydrogenase 1 unit/mL).
Liver microsomes (final concentration 0.5 mg protein/mL).
Reaction termination solution: cold acetonitrile containing 100 ng/mL Tolbutamide and 100 ng/mL Labetalol as an internal standard.
• (1) Preparation of Buffer Solution: • Buffer solution A: 1.0 L of 0.1 M potassium phosphate buffer solution containing 1.0 mM EDTA • Buffer solution B: 1.0 L of 0.1 M dipotassium phosphate buffer solution containing 1.0 mM EDTA • Buffer solution C: 0.1 M potassium phosphate buffer, 1.0 mM EDTA, pH 7.4, titrated with 700 mL of buffer solution B and buffer solution A, monitored by pH meter. • (2) Preparation of Reference Substance (Ketanserin) and Concentration of Administration Solution of the Test Substance
5000 administration solution: […] 10 mM DMSO reference substance stock solution and test substance stock solution were added to 190 μL of ACN, respectively. 1.5 μM administration solution (containing 0.75 mg/mL liver microsomes): […] administration solution and 18.75 μL of 20 mg/mL liver microsomes were added to 479.75 μL of buffer C on a wet ice. • (3) NADPH was added to buffer solution C to obtain a NADPH stock solution (6 mM). • (4) 30 μL of 1.5 μM administration solution (containing 0.75 mg/mL of liver microsomes) was taken on the wet ice and added to the wells of the test plate at different time points (0-, 5-, 15-, 30-, 45-min), respectively. • (5) Firstly, 135 μL of ACN containing IS was added to the wells of a 0 min test plate, and then 15 µL of the NADPH stock solution (6 mM) was added. • (6) The test plate at other time points and the NADPH stock solution were pre-heated in a 37° C. water bath for 5 minutes. • (7) 15 μL of the NADPH stock solution (6 mM) was taken and added to a pre-incubated test plate, and the reaction was started and timed. • (8) At 5 min, 15 min, 30 min and 45 min, 135 µL of CAN containing IS was added to the corresponding test plate respectively, and the test was completed. • (9) Test plates were shaken with a shaker (IKA, MTS 2/4) for 10 min (600 rpm/min) and then centrifuged for 15 min (Thermo Multifuge×3R, 5594 g). • (10) 50 μL of supernatant from each well was added to a 96-well sample plate containing 50 μL of ultrapure water (Millipore, ZMQS50F01), and the samples were analyzed by LC/MS.

[2] = Pharmacokinetic experiment on rats: maximum plasma drug concentration (Cmax); format: in vivo; settings: rat, male SD rats, po, 10 mg/kg, 5% CMC-Na aqueous solution
Protocol: In the pharmacokinetic experiment on rats, the maximum plasma drug concentration (Cmax) was used to evaluate the absorption of the compounds in rats. All rats fasted overnight before administration; the test compounds were dissolved and administered orally (po) to male SD rats, with 3 rats in each group. After administration of the test compounds, blood was collected by jugular vein puncture at […] with about 0.25 mL per sample. The plasma drug concentration was determined by LC-MS/MS method, and the pharmacokinetic parameters were calculated by Phoenix WinNonlin7.0. The dosage was 10 mg/kg, and the vehicle was 5% CMC-Na aqueous solution.

[3] = Water solubility observed during work-up; format: physicochemical; settings: observation at extraction, pH=7
Protocol: Methyl 6-[7-methoxy-3-(5-methyl-isoxazol-3-yl)-[1,2,4]triazolo[4,3-b]pyridazin-6-yloxymethyl]-nicotinate (300 mg, 0.75 mmol), 1 M lithium hydroxide (1.5 mL, 1.5 mmol) were sequentially added to 10 mL of ethanol, and the mixture was stirred at room temperature for 1 hour. The mixture was added with 0.5 M hydrochloric acid to neutralize to pH=7, diluted with water, extracted with ethyl acetate. […] LC-MS: m/z [M+H]^+=383.

[4] = Pharmacokinetic experiment on rats: brain entry ratio (brain tissue/plasma concentration ratio); format: in vivo; settings: male SD rats, po, 10 mg/kg, 0.5 hours
Protocol: The drug concentration ratio of plasma and brain tissue in the pharmacokinetic experiment on rats was used to evaluate the entry of compounds into brain. All rats fasted overnight before administration; the test compounds were dissolved and administered orally (po) to male SD rats, with 3 rats in each group. After administration of the test compounds, blood was collected by jugular vein puncture at 0.5 hours with about 0.25 mL per sample. The whole brain was taken at the same time. The plasma and brain tissue drug concentration were determined by LC-MS/MS method, and the pharmacokinetic parameters were calculated by Phoenix WinNonlin7.0. The dosage was 10 mg/kg, and the vehicle was 5% CMC-Na aqueous solution.

α5-GABAA receptor [5] = test system: α5-GABAA receptor; set-up: suppression of the current induced by GABA: dose or concentration left out as unconfirmed; settings: cited from earlier work
α5-GABAA receptor [6] = settings: animal models; cited from earlier work

| SMILES | microsomal CLint [1] [µL/min/mg] | other results |
| --- | --- | --- |
| CCNC(=O)c1ccc(COc2nn3c(-c4cc(C)on4)nnc3cc2C(C)(C)C)nc1 [Compound 42 in CN107344936A, reference compound] | 143 | – |
| COc1cc2nnc(-c3cc(C)on3)n2nc1OCc1ccccn1 [Embodiment 33] | 0.3 | Cmax [2]: 1780 ng/mL |
| CCNC(=O)c1ccc(COc2nn3c(-c4cc(C)on4)nnc3cc2OC)nc1 [Embodiment 35] | 11.4 | – |
| COc1cc2nnc(-c3cc(C)on3)n2nc1OCc1ccc(C(=O)O)cn1 [Embodiment 63] | – | water solubility [3]: good water solubility |
| COc1cc2nnc(-c3cc(C)on3)n2nc1OCc1ccc2c(n1)CCN(C1COC1)C2 [Embodiment 84] | – | RLM [1]: 0 µL/min/mg |
| COc1cc2nnc(-c3cc(C)on3)n2nc1OCc1ccc(C2(F)CN(C3COC3)C2)cn1 [Embodiment 128] | 6 | – |
| COCCCOc1ccc(COc2nn3c(-c4noc(C)n4)nnc3cc2OC)nn1 [Embodiment 129] | 14 | – |
| COCc1ccc(COc2nn3c(-c4cc(C)on4)nnc3cc2OC)nn1 [Embodiment 151] | 1 | – |
| COc1cc2nnc(-c3cc(C)on3)n2nc1OCc1ccc(OC2CCOCC2)nn1 [Embodiment 152] | 23 | – |
| COc1cc2nnc(-c3cc(C)on3)n2nc1OCc1ccc(OC2COC2)nn1 [Embodiment 153] | 5 | – |
| COc1cc2nnc(-c3cc(C)on3)n2nc1OCc1ccc(OC2CCOC2)nn1 (stereo not shown) [Embodiment 154] | 1 | – |
| COc1cc2nnc(-c3cc(C)on3)n2nc1OCc1ccc2c(n1)CN(C)C2 [Embodiment 160] | 6 | – |
| COCCOCc1ccc(COc2nn3c(-c4cc(C)on4)nnc3cc2OC)nn1 [Embodiment 166] | – | RLM [1]: 0 µL/min/mg |
| COc1cc2nnc(-c3cc(C)on3)n2nc1OCc1ccc2c(n1)CCN(C1CCOC1)C2 (stereo not shown) [Embodiment 183] | 5 | – |
| COc1cc2nnc(-c3cc(C)on3)n2nc1OCc1ccc2c(n1)CCN(C(CO)CO)C2 [Embodiment 185] | 9 | Brain entry ratio [4]: 0% |
| COc1cc2nnc(-c3cc(C)on3)n2nc1OCc1ccc2c(n1)CCN(C1CCOCC1)C2 [Embodiment 186] | 22 | – |
| COc1cc2nnc(-c3cc(C)on3)n2nc1OCc1ccc2c(n1)CCN(Cc1cc(C)on1)C2 [Embodiment 187] | 15 | – |
| COc1cc2nnc(-c3cc(C)on3)n2nc1OCc1ccc2nc(C#N)cn2n1 [Embodiment 211] | 5 | – |
| COCc1cn2nc(COc3nn4c(-c5cc(C)on5)nnc4cc3OC)ccc2n1 [Embodiment 213] | 10 | – |
| COc1cc2nnc(-c3cc(C)on3)n2nc1OCc1ccc2c(n1)CN(C1CCOCC1)C2 [Embodiment 253] | 10 | – |
| CCOC(=O)c1ncn2c1[C@@H]1CCCN1C(=O)c1cc(OC)ccc1-2 [L-655,708] | – | inhibitory effect on the current induced by GABA (α5-GABAA receptor [5]; GABA concentration increased further): no inhibitory effect; suppression of the current induced by GABA (α5-GABAA receptor [5]; highest concentration of L-655,708): 15%; inhibition of the current induced by GABA (α5-GABAA receptor [5]; low concentrations of GABA (5, 50 and 500 nM)): dose-dependently inhibited |
| Cc1cc(-c2nncc3c(C(C)(C)C)c(OCc4ncnn4C)nn23)no1 [MRK-016] | – | therapeutic effects on cognition related diseases (α5-GABAA receptor [6]): good therapeutic effects |
| Cc1cc(-c2nnc3cc(C(C)(C)C)c(OCc4ccccn4)nn23)no1 [drawing 926, reference compound] | 33.6 | – |
| Cc1cc(-c2nnc3cc(C(C)(C)C)c(OCc4ccccn4)nn23)no1 [drawing 930] | – | Cmax [2]: 216 ng/mL |
| Cc1cc(-c2nnc3c4ccccc4c(OCc4cn(C)nn4)nn23)no1 [α5IA] | – | therapeutic effects on cognition related diseases (α5-GABAA receptor [6]): good therapeutic effects |
| Cc1cc(-c2nnc3c4ccccc4c(OCc4ccccn4)nn23)no1 [α51A-II, reference compound] | 28.2 | Cmax [2]: 25.7 ng/mL |
